Assay results taken from PubChem BioAssay (NCI).
Where “and” joins values, the source holds several entries; their conditions need not be identical. Equal entries are not always repeated.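 Exposure lasted 48 hours, with cells grown in 96-well plates and compounds tested at five concentrations. GI50: concentration for 50% inhibition of growth. TGI: total growth inhibition.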

Legend:
Assay in all cases: growth of human tumour cells (NCI), 48 h; in the data active = GI50 below about 0.43 µM; inactive = the rest
NCI-H522 lung = tested on: NCI-H522 lung
OVCAR-8 ovarian = tested on: OVCAR-8 ovarian
K-562 leukemia = tested on: K-562 leukemia
UO-31 renal = tested on: UO-31 renal
MDA-N = tested on: MDA-N
CCRF-CEM leukemia = tested on: CCRF-CEM leukemia
SK-MEL-5 melanoma = tested on: SK-MEL-5 melanoma
SF-295 CNS = tested on: SF-295 CNS
TK-10 renal = tested on: TK-10 renal
OVCAR-3 ovarian = tested on: OVCAR-3 ovarian
COLO 205 colon = tested on: COLO 205 colon
CAKI-1 renal = tested on: CAKI-1 renal
RPMI-8226 leukemia = tested on: RPMI-8226 leukemia
SW-620 colon = tested on: SW-620 colon
A549 NSCLC = tested on: A549 NSCLC
SF-539 CNS = tested on: SF-539 CNS
HCT-15 colon = tested on: HCT-15 colon
A498 renal = tested on: A498 renal
RXF 393 renal = tested on: RXF 393 renal
T-47D breast = tested on: T-47D breast
OVCAR-5 ovarian = tested on: OVCAR-5 ovarian
EKVX NSCLC = tested on: EKVX NSCLC
HCC-2998 colon = tested on: HCC-2998 colon
U251 CNS = tested on: U251 CNS
MOLT-4 leukemia = tested on: MOLT-4 leukemia
SNB-19 CNS = tested on: SNB-19 CNS
LOX IMVI melanoma = tested on: LOX IMVI melanoma
MDA-MB-435 = tested on: MDA-MB-435
SN12C renal = tested on: SN12C renal
UACC-62 melanoma = tested on: UACC-62 melanoma
NCI-H226 lung = tested on: NCI-H226 lung
HCT-116 colon = tested on: HCT-116 colon
HOP-92 NSCLC = tested on: HOP-92 NSCLC
MDA-MB-231 breast = tested on: MDA-MB-231 breast
HS 578T breast = tested on: HS 578T breast
SF-268 CNS = tested on: SF-268 CNS
SK-OV-3 ovarian = tested on: SK-OV-3 ovarian
786-0 renal = tested on: 786-0 renal
MCF7 breast = tested on: MCF7 breast
UACC-257 melanoma = tested on: UACC-257 melanoma
DU-145 prostate = tested on: DU-145 prostate
ACHN renal = tested on: ACHN renal
M14 melanoma = tested on: M14 melanoma
OVCAR-4 ovarian = tested on: OVCAR-4 ovarian
HT29 colon = tested on: HT29 colon
PC-3 prostate = tested on: PC-3 prostate
HOP-62 NSCLC = tested on: HOP-62 NSCLC

O=C1CC(c2cccc(F)c2)Nc2cc3c(cc21)OCO3 (centres undefined)
22600 nM: TGI (ACHN renal)
< 10 nM: TGI (SK-MEL-5 melanoma) | TGI (HCC-2998 colon) | TGI (MOLT-4 leukemia) | TGI (MDA-MB-435) | TGI (UACC-62 melanoma)
60.2 nM: TGI (NCI-H522 lung)
37.7 nM and < 10 nM: TGI (MDA-N)
66.7 nM: TGI (HT29 colon)
inactive: GI50 (TK-10 renal) > 100000 nM | GI50 (OVCAR-5 ovarian) 13400 nM | GI50 (HOP-92 NSCLC) 30800 nM | GI50 (SF-268 CNS) 1530 nM | GI50 (OVCAR-4 ovarian) > 100000 nM | GI50 (HOP-62 NSCLC) 2650 nM
> 100000 nM: TGI (K-562 leukemia) | TGI (UO-31 renal) | TGI (CCRF-CEM leukemia) | TGI (SF-295 CNS) | TGI (TK-10 renal) | TGI (OVCAR-3 ovarian) | TGI (CAKI-1 renal) | TGI (SW-620 colon) | TGI (A549 NSCLC) | TGI (HCT-15 colon) | TGI (A498 renal) | TGI (T-47D breast) | TGI (OVCAR-5 ovarian) | TGI (EKVX NSCLC) | TGI (U251 CNS) | TGI (LOX IMVI melanoma) | TGI (SN12C renal) | TGI (HCT-116 colon) | TGI (HOP-92 NSCLC) | TGI (MDA-MB-231 breast) | TGI (HS 578T breast) | TGI (SF-268 CNS) | TGI (SK-OV-3 ovarian) | TGI (786-0 renal) | TGI (MCF7 breast) | TGI (UACC-257 melanoma) | TGI (DU-145 prostate) | TGI (M14 melanoma) | TGI (OVCAR-4 ovarian) | TGI (PC-3 prostate) | TGI (HOP-62 NSCLC)
3120 nM: TGI (SNB-19 CNS)
active: GI50 (UO-31 renal) < 10 nM | GI50 (MDA-N) < 10 nM | GI50 (CCRF-CEM leukemia) < 10 nM | GI50 (SK-MEL-5 melanoma) < 10 nM | GI50 (SF-295 CNS) < 10 nM | GI50 (OVCAR-3 ovarian) < 10 nM | GI50 (COLO 205 colon) < 10 nM | GI50 (CAKI-1 renal) < 10 nM | GI50 (SW-620 colon) < 10 nM | GI50 (A549 NSCLC) < 10 nM | GI50 (SF-539 CNS) < 10 nM | GI50 (HCT-15 colon) < 10 nM | GI50 (HCC-2998 colon) < 10 nM | GI50 (U251 CNS) < 10 nM | GI50 (LOX IMVI melanoma) < 10 nM | GI50 (MDA-MB-435) < 10 nM | GI50 (SN12C renal) 207 nM | GI50 (UACC-62 melanoma) < 10 nM | GI50 (NCI-H226 lung) < 10 nM | GI50 (HCT-116 colon) < 10 nM | GI50 (MDA-MB-231 breast) 40 nM | GI50 (SK-OV-3 ovarian) 11.1 nM | GI50 (786-0 renal) < 10 nM | GI50 (MCF7 breast) < 10 nM | GI50 (UACC-257 melanoma) < 10 nM | GI50 (DU-145 prostate) < 10 nM | GI50 (ACHN renal) < 10 nM | GI50 (M14 melanoma) < 10 nM | GI50 (PC-3 prostate) < 10 nM
1520 nM: TGI (OVCAR-8 ovarian)
162 nM: TGI (RPMI-8226 leukemia)
94.3 nM: TGI (RXF 393 renal)
